The numbers were not newly measured in patent US20180110725A1, “COMPOSITIONS, METHODS AND KITS FOR THE SAFE INHALED DELIVERY OF TARGETED OPIOIDS FOR THE TREATMENT OF PAIN AND ADDICTION” (Somniferum Labs LLC, priority 2016, published 2018), which cites them from elsewhere.

The conditions of data set [1]: room temperature.
The target of a further data set is μ-1 opioid receptor (Homo sapiens, UniProt P35372). The note with it: Wittwer and Kern, 2006.
For data set [2] the following is noted: in vivo.

Chain of μ-1 opioid receptor (P35372 whole entry): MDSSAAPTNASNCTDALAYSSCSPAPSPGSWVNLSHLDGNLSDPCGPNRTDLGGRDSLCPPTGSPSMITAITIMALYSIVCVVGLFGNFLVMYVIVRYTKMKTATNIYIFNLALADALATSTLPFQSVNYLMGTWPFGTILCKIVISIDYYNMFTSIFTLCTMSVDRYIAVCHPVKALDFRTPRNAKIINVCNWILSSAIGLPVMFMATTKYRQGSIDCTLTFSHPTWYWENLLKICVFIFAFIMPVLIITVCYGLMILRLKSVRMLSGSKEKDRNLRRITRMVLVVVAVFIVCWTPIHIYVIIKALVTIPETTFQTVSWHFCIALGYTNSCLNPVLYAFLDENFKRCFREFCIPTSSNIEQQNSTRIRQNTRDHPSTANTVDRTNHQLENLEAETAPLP

Consider `Br.CN1CC[C@]23c4c5ccc(O)c4O[C@H]2[C@@H](O[C@@H]2O[C@H](C(=O)O)[C@@H](O)[C@H](O)[C@H]2O)C=C[C@H]3[C@H]1C5` [Morphine-6 glucuronide bromide], for which the “storage time with little or no degradation” value in data set [1] is on record as “up to 6 years”. On to `CN1CC[C@]23c4c5ccc(O)c4O[C@H]2[C@@H](O[C@@H]2O[C@H](C(=O)O)[C@@H](O)[C@H](O)[C@H]2O)C=C[C@H]3[C@H]1C5` [Morphine-6-glucuronide], for which the “potency relative to morphine” value at μ-1 opioid receptor was “higher potency than morphine”.

Regarding `CC(=O)O.CN1CCC23c4c5ccc(O)c4OC2C(OC2OC(C(=O)O)C(O)C(O)C2O)C=CC3C1C5` (stereo not shown) [morphine-6-glucuronide acetate], in data set [2], the duration of activity result is “relatively long duration of activity”. Consider morphine-6-glucuronide sulfate, for which the duration of activity entry in data set [2] is “relatively long duration of activity”.
